The test system of experiment [1] is OVCAR-3 cisplatin-resistant ovarian carcinoma cell line. Put plainly: Cisplatin chemosensitization (MTS assay). In kind it is cell-based, human. The following applies: 1 μM retinoid 3 days before and 3 days after one hour of cisplatin (40 μM or 1 μg/ml). The method, then: The compounds of the present invention also find advantage over the standard retinoids, including retinoic acid and 4-HPR as chemosensitization agents. In another study, ovarian carcinoma cultures, including cisplatin-resistant cultures, were trypsinized and plated in microtiter plates at a concentration of 1000 cells per well. A series of natural and synthetic retinoids, including exemplar heteroarotinoids with the novel three atom linker, at a concentration of 5 μM were added to triplicate wells in the microtiter plates twenty-four hours later. The same volume of DMSO used to administer the compounds were added to the control cultures. After three days of treatment, a range of cisplatin concentrations were added to the wells. After one hours of exposure, the media and retinoid drugs were replenished. Cell survival was quantitated using the MTS assay (Promega). […] Thus, the present invention contemplates the process of sensitizing cells to cisplatin therapy and combined cisplatin and radiation therapy using the inventive heteroarotinoids.
In this regard, the cisplatin resistant OVCAR-3 cell line was pre-treated with a concentration of 1 μM of the indicated retinoids for 3 days, and then exposed to cisplatin at the concentration detected in tumors of treated patients (40 μM or 1 μg/ml). […] After one hour of cisplatin exposure, the cisplatin was removed and the cultures were grown in the presence of 1 μM of the indicated retinoids for an additional 3 days. The number of living cells present was then determined using the MTS (3-(4,5-dimethylthiazol-2-yl)-5-(3-carboxymethoxyphenyl)-2H-tetrazolium inner salt) assay (Promega). In the MTS assay, metabolically active cells reduce the MTS compound to an aqueous soluble formazan resulting in an absorbance that can be measured at 490 nm (Promega Technical Bulletin No.169). The optical density at 490 nm (OD490) of the MTS-treated cultures is then determined and used as a measure of the number of living cells in each well. The percent growth is determined by dividing the OD490 of the treated cultures by the OD490 of the untreated control cultures.
A general note: Tetrazolium assays rely on reduction of a dye to a coloured formazan, in cell work by metabolically active cells.

In experiment [2] the test system is ovarian carcinoma cell line OVCAR-3. Briefly: Apoptosis in organotypic culture, TUNNEL assay. In kind it is cell-based, human. As to conditions: 1 μM; for % APOPTOSIS of OVCAR-3 cells: two weeks, organotypic culture, TUNNEL assay; for inducing apoptosis in the OVCAR-3 cell line, comparison in words: Table V. The method, then: In another experiment, the ovarian carcinoma cell line OVCAR-3 was grown in organotypic culture. After one week, the cultures were treated with 1 μM solution of heteroarotinoids 11, 12, and 13, or with the same volume of DMSO (solvent), for two weeks. Both 9-c-RA and 4-HPR were used as controls. At the end of the time, the cultures were fixed in sectioned, and stained with the TUNNEL assay to detect apoptosing cells. An experienced pathologist quantitated the percent of apoptosing cells by light microscopic examination.

The subject of a further experiment is SW962. Put plainly: Growth inhibition assay (SRB). In kind it is cell-based. As to conditions: 10 μM, three-day treatment, Table I. An outline of the steps: (§1)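 Cells plated at 2000-4000/well, then treated next day with compound at final 1, 2, 3, 4, 5, 7 and 10 μM for 3 days. Density by TCA fixation and sulforhodamine B staining with OD read-out, in triplicate. Percent growth inhibition = (1 − treated OD/DMSO-control OD) × 100.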

In a further experiment the test system is HT-3. Briefly: Growth inhibition assay (SRB). In kind it is cell-based. The following applies: 10 μM, three-day treatment, Table I. An outline of the steps: as §1
The test system of the next experiment is SiHa. Briefly: Growth inhibition assay (SRB). In kind it is cell-based. The following applies: 10 μM, three-day treatment, Table I. An outline of the steps: as §1
The next experiment has as its system CAOV-3. Briefly: Growth inhibition assay (SRB). It is filed as cell-based. As to conditions: 10 μM, three-day treatment, Table I. An outline of the steps:
as §1

The subject of the next experiment is SK-OV-3. Put plainly: Growth inhibition assay (SRB). It is filed as cell-based. The following applies: 10 μM, three-day treatment, Table I. An outline of the steps: as §1
For a further experiment, the system named is C-33A. Briefly: Growth inhibition assay (SRB). It is filed as cell-based. The following applies: 10 μM, three-day treatment, Table I. An outline of the steps:
as §1

The test system of experiment [3] is SW962 vulvar carcinoma cultures. Put plainly: Apoptosis assay, Annexin-V-Flous/propidium iodide flow cytometry. In kind it is cell-based. From the text: Optimal chemotherapeutic agents will selectively kill tumor cells by inducing a natural form of cell death which is called “apoptosis”. Toxic agents kill both normal and tumor cells via a nonspecific process known as “necrosis”. To differentiate between apoptosis and necrosis in heteroarotinoid-treated cultures, a flow cytometric assay was employed. Treated cultures were stained with Annexin-V-Flous and propidium iodide, and the intensities of the stains are quantitated with Flow Cytometry. The Annexin-V-Flous binds to phosphatidyl serine on the exterior of apoptosing cells. This assay is specific for apoptosing cells because phosphatidyl serine is normally located on the inner membrane of the cells, a situation whereby the serine derivative cannot be bound by Annexin. However, during apoptosis, phosphatidyl serine is translocated to the outer membrane. The Flous moiety emits a signal that can be detected and quantitated by Flow Cytometry. In contrast, propidium iodide is taken up by necrotic cells that have lost membrane integrity. In this study, t-RA was used as a control for the non-apoptotic retinoids, and 4-HPR was used as a control for the apoptotic retinoids.

Structures are written as SMILES.

Consider `CC1(C)CC(C)(C)c2cc(NC(=S)Nc3ccc([N+](=O)[O-])cc3)ccc2S1` [heteroarotinoid 11], for which the “chemosensitization to cisplatin (percent growth, FIG. 2)” value in [1] is listed as “effective”. In addition, in [2], the “% APOPTOSIS of OVCAR-3 cells” value is listed as 95%. Further, the “inducing apoptosis in the OVCAR-3 cell line, comparison in words” value in experiment [2] is reported as “as effective as 4-HPR”. Also, the “Percentage growth inhibition, SW962 (Vulva HPV− Mut p53)” value with SW962 is on record as 98%. The “Percentage growth inhibition, HT-3 (Cervix HPV− Mut p53)” value in the experiment on HT-3 came to 82%. For the same molecule, the “Percentage growth inhibition, SiHa (Cervix HPV+ Wt p53)” value in the experiment with SiHa is recorded as 72%. Besides, in the experiment on CAOV-3, the “Percentage growth inhibition, CAOV-3 (Ovarian HPV− Mut p53)” value is 80%. In addition, the “Percentage growth inhibition, SK-OV-3 (Ovarian HPV− Null p53)” value in the experiment on SK-OV-3 is reported as 100%. For the same molecule, the “Percentage growth inhibition, C-33A (Cervix HPV− Mut p53)” value in the experiment with C-33A is recorded as 87%. Besides, the “Percentage of induction of apoptosis in SW962 vulvar carcinoma cultures” value in experiment [3] (Days 0) stood at 3%; in [3] (Days 1) it was 6.11%; in experiment [3] (Days 2) it was 11.42%; in experiment [3] (Days 3), 39.06%; in [3] (Days 4), 48.79%; in [3] (Days 7), 47.5%. In addition, the “apoptosis in the SW962 vulvar cell, comparison in words” value in experiment [3] (Table IV) was “superior to the clinically used agent 4-HPR”.

For the molecule `CCOC(=O)c1ccc(NC(=O)Nc2ccc3c(c2)C(C)(C)CC(C)(C)S3)cc1` [heteroarotinoid 13], the “chemosensitization to cisplatin (percent growth, FIG. 2)” value in experiment [1] was “effective”. Also, in experiment [2], the “% APOPTOSIS of OVCAR-3 cells” value came to 80% and the “inducing apoptosis in the OVCAR-3 cell line, comparison in words” value was “as effective as 4-HPR”. The “Percentage growth inhibition, SW962 (Vulva HPV− Mut p53)” value with SW962 is on record as 96%. In the experiment on HT-3, the “Percentage growth inhibition, HT-3 (Cervix HPV− Mut p53)” value is 85%. Besides, the “Percentage growth inhibition, SiHa (Cervix HPV+ Wt p53)” value in the experiment on SiHa was determined as 66%. The “Percentage growth inhibition, CAOV-3 (Ovarian HPV− Mut p53)” value in the experiment with CAOV-3 was 98%. In the experiment with SK-OV-3, the “Percentage growth inhibition, SK-OV-3 (Ovarian HPV− Null p53)” value worked out at 94%. Further, the “Percentage growth inhibition, C-33A (Cervix HPV− Mut p53)” value in the experiment on C-33A came to 76%.

The record behind these values is patent US6586460B1, “Heteroarotinoids containing urea or thiourea linker” (The Board of Regents for Oklahoma State University, priority 2001, dated 2003).
